Results published in patent publication US11572350B1, “Benzothia(di)azepine compounds and their use as bile acid modulators” (Albireo AB, priority 2020, dated 2023).

How the values were obtained:
[1] = molecular target: T1, human LBAT (Homo sapiens, UniProt Q14973); experiment: LBAT (h/m) assay: 3H-taurocholic acid uptake in human LBAT-overexpressing cells; assay type: cell-based; details: 0.3 μM 3H-taurocholic acid and 7.5 μM cold taurocholic acid, 20 minutes, read-out: hLBAT IC50
T1 construct: expressed in transfected cells; kept under Geneticin selection
T1 sequence (Q14973 1-349): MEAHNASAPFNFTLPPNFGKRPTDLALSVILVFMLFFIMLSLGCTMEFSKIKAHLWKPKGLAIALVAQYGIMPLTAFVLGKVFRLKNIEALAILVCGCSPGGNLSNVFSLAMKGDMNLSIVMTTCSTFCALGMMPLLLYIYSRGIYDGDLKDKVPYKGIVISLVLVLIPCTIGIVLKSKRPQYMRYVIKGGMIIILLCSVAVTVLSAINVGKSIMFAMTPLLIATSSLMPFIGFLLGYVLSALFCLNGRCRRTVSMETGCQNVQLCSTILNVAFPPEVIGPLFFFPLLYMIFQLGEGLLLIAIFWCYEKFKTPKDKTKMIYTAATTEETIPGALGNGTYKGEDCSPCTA
Experimental: LBAT (h/m) Assay Protocol
20,000 cells (Human or Mouse LBAT-overexpressing cells) were seeded in 96-wells plate (Corning CLS3809) in 100 μL MEM-alpha medium (Gibco 12571-063) supplemented with 10% FBS (Gibco 10438026) containing Geneticin (Gibco 10131-027) (1 mg/mL) and incubated at 37° C. in 5% CO2 for 24 hours. After incubation, media was decanted from the wells and cells were washed two times with 300 μL of basal MEM-alpha medium (FBS-free). After decanting basal MEM-alpha medium each time, plates were tapped against paper towel to ensure maximum removal of residual media. For human LBAT, incubation mix was prepared by adding test inhibitor dilutions (3-fold serial dilution in DMSO (Sigma D2650), 10 points) in MEM-alpha (without FBS) containing 0.3 μM 3H-taurocholic acid (ARC ART-1368) and 7.5 μM cold taurocholic acid (Sigma T4009) (maintaining 0.2% final DMSO concentration). For mouse LBAT, incubation mix was prepared by adding test inhibitor dilutions (3-fold serial dilution in DMSO, 10 points) in MEM-alpha (without FBS) containing 0.3 μM 3H-taurocholic acid and 25 μM cold taurocholic acid maintaining 0.2% final DMSO concentration). 50 μL of incubation mix containing test inhibitors was then added to the wells (in duplicate) and the plates were incubated for 20 minutes in a CO2 incubator at 37° C. After incubation, the reaction was stopped by keeping the plates on ice water mix for 2-3 minutes and then the incubation mix was aspirated completely from the wells. The wells were washed two times with 250 μL of chilled unlabelled 1 mM taurocholic acid dissolved in HEPES (Gibco 15630080)-buffered (10 mM) HBSS (Gibco 14175079) (pH 7.4). The plates were tapped against a paper towel after every wash to ensure maximum removal of blocking buffer.
100 μL of MicroScint-20 (PerkinElmer 6013621) was added to the wells and kept overnight at room temperature before reading the plates in TopCount NXT™ Microplate Scintillation and Luminescence Counter from PerkinElmer under 3H Test protocol (set at 120 seconds reading time per well, with normal plate orientation).
(§1) Preparation of Test Compound Dilutions
(§2) All test compounds were provided in powder form at room temperature. 10 mM DMSO stocks of the test compounds were prepared, aliquoted and stored at −20° C. From the 10 mM DMSO stock of the compounds, a 3-fold serial dilution in DMSO was prepared to get a total of 10 dilutions of the test compounds. 0.5 μL of this dilution in DMSO was added to 250 μL of FBS-free basal media containing 3H-taurocholic acid and cold taurocholic acid to prepare the incubation mixture.

[2] = Bidirectional permeability assay (Caco-2 cells); assay type: in vitro ADME; details: human, FaSSIF donor buffer, 120 minutes at 37° C.; for Papp A→B at 120 min, 10 µM: Caco-2, pH 7.4, absorptive direction (A2B); for Papp B→A at 120 min, 10 µM: Caco-2, pH 7.4, secretory direction (B2A)
From the text: Bidirectional Permeability Assay (Caco-2 Cells)
HepaRG-Based Assay Protocol

[3] = molecular target: T2, human IBAT (Homo sapiens, UniProt Q12908); experiment: IBAT (h/m) assay: 3H-taurocholic acid uptake in human IBAT-overexpressing cells; assay type: cell-based; details: 0.25 μM 3H-taurocholic acid and 5 μM cold taurocholic acid, 20 minutes, highest test concentration 10 μM, read-out: hIBAT IC50
T2 construct: expressed in transfected cells; kept under Puromycin selection
T2 sequence (Q12908 1-348): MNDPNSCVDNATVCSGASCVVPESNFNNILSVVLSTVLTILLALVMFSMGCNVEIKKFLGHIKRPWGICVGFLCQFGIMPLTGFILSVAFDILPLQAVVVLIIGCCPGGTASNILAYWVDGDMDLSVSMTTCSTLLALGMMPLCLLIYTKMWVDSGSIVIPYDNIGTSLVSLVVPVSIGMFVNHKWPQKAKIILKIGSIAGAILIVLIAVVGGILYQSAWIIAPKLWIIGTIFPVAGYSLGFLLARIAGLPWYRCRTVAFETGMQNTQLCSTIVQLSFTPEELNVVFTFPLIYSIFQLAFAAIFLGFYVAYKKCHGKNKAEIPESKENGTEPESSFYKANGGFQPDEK
Experimental: IBAT (h/m) Assay Protocol
10,000 cells (Human or Mouse IBAT-overexpressing cells) were seeded in 96-wells plate (Corning CLS3809) in 200 μL MEM-alpha medium (Gibco 12571-063) supplemented with 10% FBS (Gibco 10438026) containing Puromycin (Gibco A1113803) (10 μg/mL) and incubated at 37° C. in 5% CO2 for 48 hours. After incubation, media was decanted from the wells and cells were washed two times with 300 μL of basal MEM-alpha medium (FBS-free). After decanting basal MEM-alpha medium each time, plates were tapped against paper towel to ensure maximum removal of residual media. Test inhibitor dilutions (highest test concentration being 10 μM, 3-fold serial dilution, 10 points) prepared in DMSO (Sigma D2650) were added in incubation mix (maintaining 0.2% final DMSO concentration) containing 0.25 μM 3H-taurocholic acid (ARC ART-1368) and 5 μM of cold taurocholic acid (Sigma T4009). 50 μL of incubation mix containing test inhibitors was then added to the wells (in duplicate) and the plates were incubated for 20 minutes in a CO2 incubator at 37° C. After incubation, the reaction was stopped by keeping the plates on ice water mix for 2-3 minutes and then the incubation mix was aspirated completely from the wells. The wells were washed two times with 250 μL of chilled unlabelled 1 mM taurocholic acid dissolved in HEPES (Gibco 15630080)-buffered (10 mM) HBSS (Gibco 14175079) (pH 7.4). The plates were tapped against a paper towel after every wash to ensure maximum removal of blocking buffer.
100 μL of MicroScint-20 (PerkinElmer 6013621) was added to the wells and kept overnight at room temperature before reading the plates in TopCount NXT™ Microplate Scintillation and Luminescence Counter from PerkinElmer under 3H Test protocol (set at 120 seconds reading time per well).
as §1, §2

[4] = system: OATP KO mice; experiment: Effect of LBAT selective compounds on serum bile acid levels in OATP KO mice; assay type: in vivo; details: male OATP KO mice; oral dosing at the indicated doses; FIGS. 1 to 4; n=4
From the text: Effect of LBAT Selective Compounds on Serum Bile Acid Levels in OATP KO Mice
Male OATP KO mice (Oatp1a/1b cluster knockout mice, Taconic, USA) aged 8 to 9 weeks were used in the studies. After completion of quarantine and acclimatization period, animals were randomized based on body weight into experimental groups (n=4 mice in each). On the experimental day, a baseline blood sample was collected followed by oral dosing of vehicle (0.5% CMC, 0.1% Tween 80) or compound of Example 3, 6, 13 or 15 at the indicated doses. Blood samples were then collected at various time points after dose (indicated in each graph). Blood was allowed to clot, and serum was collected by centrifugation at 3000 g, 4° C. for 15 minutes and stored at −80° C. for further analysis. The total bile acid concentration in each serum sample was determined by using the CELL BIOLABS Total Bile Acids kit (STA631) according to manufacturer's instructions. Mean±SEM, n=4.

Row | SMILES | IC50 [1] | Papp A→B at 120 min, 10 µM [2] | Papp B→A at 120 min, 10 µM [2] | IC50 [3] | Effect on serum bile acid levels [4]
1 | CCCCC1CN(c2ccc(F)cc2)c2cc(SC)c(O/C=C(\F)C(=O)O)cc2S(=O)(=O)C1 (racemic) [Example 10, (Z)-3-((3-butyl-5-(4-fluorophenyl)-7-(methylthio)-1,1-dioxido-2,3,4,5-tetrahydro-1,5-benzothiazepin-8-yl)oxy)-2-fluoroacrylic acid] | 0.0016 µM | 2.9 ×10⁻⁶ cm/s | 8.5 ×10⁻⁶ cm/s | 0.827 µM | –
2 | CCCCC1CN(c2ccccc2)c2cc(SCC)c(O/C=C/C(=O)O)cc2S(=O)(=O)N1 (single isomer, unassigned) [Example 6, (E)-3-((3-butyl-7-(ethylthio)-1,1-dioxido-5-phenyl-2,3,4,5-tetrahydro-1,2,5-benzothiadiazepin-8-yl)oxy)acrylic acid] | 0.129 µM | – | – | > 10 µM | increased serum bile acid levels
3 | CCCCC1CN(c2ccc(F)cc2)c2cc(SC)c(O/C=C/C(=O)O)cc2S(=O)(=O)N1 (racemic) [Example 1, (E)-3-((3-Butyl-5-(4-fluorophenyl)-7-(methylthio)-1,1-dioxido-2,3,4,5-tetrahydro-1,2,5-benzothiadiazepin-8-yl)oxy)acrylic acid] | 0.001 µM | 7.3 ×10⁻⁶ cm/s | 17.2 ×10⁻⁶ cm/s | 1.67 µM | –
4 | CCCCC1CN(c2ccc(F)cc2)c2cc(SCC)c(O/C=C/C(=O)O)cc2S(=O)(=O)C1 (racemic) [Example 7, (E)-3-((3-Butyl-7-(ethylthio)-5-(4-fluorophenyl)-1,1-dioxido-2,3,4,5-tetrahydro-1,5-benzothiazepin-8-yl)oxy)acrylic acid] | 0.0026 µM | 11.3 ×10⁻⁶ cm/s | 8.9 ×10⁻⁶ cm/s | > 10 µM | –

More lines, main results first:

Row | IC50 [1] | Papp A→B at 120 min, 10 µM [2] | Papp B→A at 120 min, 10 µM [2] | IC50 [3] | SMILES | Effect on serum bile acid levels [4]
5 | 0.0026 µM | 1.1 ×10⁻⁶ cm/s | 3.1 ×10⁻⁶ cm/s | 0.647 µM | CCCCC1CN(c2ccc(F)cc2)c2cc(SCC)c(O/C=C(\F)C(=O)O)cc2S(=O)(=O)C1 (single isomer, unassigned) [Example 18, (Z)-3-((3-butyl-7-(ethylthio)-5-(4-fluorophenyl)-1,1-dioxido-2,3,4,5-tetrahydro-1,5-benzothiazepin-8-yl)oxy)-2-fluoroacrylic acid] | –
6 | 0.0025 µM | 1 ×10⁻⁶ cm/s | 3.6 ×10⁻⁶ cm/s | 1.38 µM | CCCCC1CN(c2ccc(F)cc2)c2cc(SCC)c(O/C=C(\F)C(=O)O)cc2S(=O)(=O)C1 (racemic) [Example 16, (Z)-3-((3-butyl-7-(ethylthio)-5-(4-fluorophenyl)-1,1-dioxido-2,3,4,5-tetrahydro-1,5-benzothiazepin-8-yl)oxy)-2-fluoroacrylic acid] | –
7 | 0.0026 µM | 6.5 ×10⁻⁶ cm/s | 8.7 ×10⁻⁶ cm/s | 4.1 µM | CCCCC1CN(c2ccc(F)cc2)c2cc(SCC)c(O/C=C/C(=O)O)cc2S(=O)(=O)N1 (racemic) [Example 30, (E)-3-((3-butyl-7-(ethylthio)-5-(4-fluorophenyl)-1,1-dioxido-2,3,4,5-tetrahydro-1,2,5-benzothiadiazepin-8-yl)oxy)acrylic acid] | –
8 | 0.0008 µM | 2.7 ×10⁻⁶ cm/s | 10.5 ×10⁻⁶ cm/s | 0.135 µM | CCCCC1CN(c2ccc(F)cc2)c2cc(SC)c(O/C=C(\F)C(=O)O)cc2S(=O)(=O)N1C (single isomer, unassigned) [Example 20, (Z)-3-((3-butyl-5-(4-fluorophenyl)-2-methyl-7-(methylthio)-1,1-dioxido-2,3,4,5-tetrahydro-1,2,5-benzothiadiazepin-8-yl)oxy)-2-fluoroacrylic acid] | –
9 | 0.0019 µM | 4.3 ×10⁻⁶ cm/s | 6.1 ×10⁻⁶ cm/s | 0.248 µM | CCCCC1CN(c2ccc(F)cc2)c2cc(SC)c(O/C=C(\F)C(=O)O)cc2S(=O)(=O)N1C (racemic) [Example 19, (Z)-3-((3-butyl-5-(4-fluorophenyl)-2-methyl-7-(methylthio)-1,1-dioxido-2,3,4,5-tetrahydro-1,2,5-benzothiadiazepin-8-yl)oxy)-2-fluoroacrylic acid] | –
10 | 0.0009 µM | 1.9 ×10⁻⁶ cm/s | 3.9 ×10⁻⁶ cm/s | 0.431 µM | CCCCC1CN(c2ccccc2)c2cc(SCC)c(O/C=C(\F)C(=O)O)cc2S(=O)(=O)N1C (single isomer, unassigned) [Example 25, (Z)-3-((3-butyl-7-(ethylthio)-2-methyl-1,1-dioxido-5-phenyl-2,3,4,5-tetrahydro-1,2,5-benzothiadiazepin-8-yl)oxy)-2-fluoroacrylic acid] | –
